We go through one compound from patent US20250161338A1, “Compounds for Anti-aging Intervention” (AGENCY FOR SCIENCE, TECHNOLOGY AND RESEARCH, priority 2022, published 2025).

Holding throughout (type): cell-based
Assay [1] relates to wild-type Saccharomyces cerevisiae CEN.PK113-7D yeast strain. The assay is described as follows: Yeast cell growth (OD600) in SD medium. The settings on record: 0 to 8 mM; 24, 48 and 72 hours. As to the method: Yeast strain was recovered from frozen glycerol stock at 30° C. on YPD agar medium. Yeast was left to propagate in SD medium overnight at 30° C. with shaking at 220 revolutions per minute (rpm). Cells propagated overnight were diluted to a starting optical density at 600 nm (OD600) of approximately 0.2 in fresh SD medium to begin the chronological lifespan (CLS) experiments.
CLS experiments were performed in 96-well plates with 200 μL yeast culture. Cellular inoculums were transferred into 96-well plates containing serially double-diluted concentrations (0 to 10 nM) of rapamycin. Cellular inoculum was transferred into 96-well plates containing serially double-diluted concentrations (0 to 8 mM) of 2,5-anhydro-D-mannitol, D-fructose, D-mannitol, D-maltose, and D-sorbitol in SD medium. Cells were incubated at 30° C., and the growth was measured at different time points. The growth time point 72 hours was considered as Day 1 for the CLS assay. Cell survival was quantified at various age time points by three different approaches: (i) PI fluorescence-based method, (ii) outgrowth in YPD liquid medium, and (iii) spotting assay (FIG. 1).
Firstly, the effect of 2,5-AM on cell growth was determined. Yeast cells were incubated with varying concentrations of 2,5-AM in the SD medium. Cell growth was measured at different time points (24 hours, 48 hours, and 72 hours). […] Then, the survival of chronologically aged cells supplemented with different concentrations of 2,5-AM was measured using the PI fluorescence method. At each chronological age point, a 3 μL culture was transferred to a second 96-well plate containing 200 μL YPD medium. The 72-hour growth culture was considered Day 1 for the CLS analysis. The viability fraction was calculated, and a survival graph was plotted for different chronological age time points (FIG. 5). […] The survival of aged cells supplemented with 2,5-AM (4 mM and 8 mM) on Day 4 was approximately 80%. However, the survival of aged cells without 2,5-AM was approximately 50%. On Day 7, survival of 2,5-AM supplemented aged cells was approximately 75%. However, the survival of aged cells without 2,5-AM was reduced to less than 20%.
Firstly, the effect of fructose, mannitol, maltose, and sorbitol on cell growth was tested. Yeast cells were incubated with various concentrations of fructose, mannitol, maltose, and sorbitol similar to 2,5-AM in the SD medium. […] Next, the survival of chronologically aged cells on day 1, day 7, day 14, and day 21 was measured. […] Aged cells supplemented with 2,5-AM (8 mM) survived (approximately 65%) on Day 21. However, the survival of aged cells without 2,5-AM supplementation was less than 10%.

Assay [2] relates to IMR90 cells. The assay is described as follows: CLS in human cells, propidium iodide fluorescence-based method (IMR90). Conditions: sixth day after seeding. As to the method:
(§1) Human embryonic kidney 293 (HEK293) cells (ATCC, Manassas, Virginia, United States of America), lung epithelial (A549) cells (ATCC, Manassas, Virginia, United States of America) and fibroblast (IMR90) cells (ATCC, Manassas, Virginia, United States of America) were cultured in the standard D10 medium, consisting of high-glucose DMEM (HyClone, Cytiva, Marlborough, Massachusetts, USA) supplemented with 10% Fetal Bovine Serum (FBS) (Gibco™, ThermoFisher Scientific, Waltham, Massachusetts, USA) and 1% Penicillin Streptomycin Solution (Gibco™, ThermoFisher Scientific, Waltham, Massachusetts, USA). All cells were cultured in a humidified incubator with 5% CO2 at 37° C.
The stock solution of rapamycin, hemin, 5-fluorouracil, atorvastatin, and methotrexate was prepared in DMSO, followed by serial dilution to form various concentrations used in the experiment. The final DMSO concentration was kept at 0.05% in all experiments. The stock solution of 2,5-anhydro-D-mannitol was prepared in D10 medium. The chemical library used in screening were tested at 1 μM concentrations. Controls used were the same as the solvent applied, DMSO or water.
The assay was performed by preparing the cells with PI (2 μg/mL or 5 μg/mL) in a D10 medium. […] At different age time points, reading was taken with a Synergy MX microplate reader (BioTek, Winooski, Vermont, United States) at 535 nm excitation and 617 nm emission.

Assay [3] deals with IMR90 cells. The assay is described as follows: CLS in human cells, PrestoBlue outgrowth assay (IMR90). As to the method: as §1
The seeding, washing and trypsinization process was performed similarly to that for the crystal violet assay. 80,000 cells were seeded in a 96-well culture plate with or without compound treatment. […] After one day of growth in a 37° C. incubator with 5% CO2, the cell number was assessed with PrestoBlue™ Cell Viability Reagent (Invitrogen™, Waltham, Massachusetts, USA) according to the manufacturer's protocol. […] After incubation in a 37° C. incubator with 5% CO2 for 3 to 4 hours, reading was taken with a BioTek Synergy MX microplate reader (BioTek, Winooski, Vermont, United States) at excitation and emission wavelengths of 560 nm and 590 nm, respectively. […]

“Also recorded” adds a separate entry of the source.

Consider `OC[C@H]1O[C@H](CO)[C@@H](O)[C@@H]1O` [2,5-AM, 2,5-anhydro-D-mannitol], for which the cell growth entry in assay [1] is “reached the same saturation level after 24 hours; also recorded: did not affect cell growth”. Besides, the “more live cells compared to the untreated control” value amounted to 32.33% in assay [2] (2.5 mM) and 48.08% in assay [2] (5 mM). For the same compound, the “more surviving cells compared to the untreated group” value in assay [3] (2.5 mM) is 59.05%. The “more viable cells compared to the untreated group” value in assay [3] (5 mM) came out at 59.89%.
